Source: patent publication US20250388553A1 (Incyte Corporation, priority 2018, published 2025)
Counter-ions that a name gives are not always drawn. Like-named read-outs stand apart in the source and are kept apart here.

Legend:
[1] = molecular target: PI3Kγ (p110γ) Recombinant Human Protein (Homo sapiens (Human), UniProt P48736); assay: PI3K-γ scintillation proximity assay; format: biochemical
[2] = molecular target: PI3Kδ (p1106/p85a) Recombinant Human Protein (Homo sapiens (Human), UniProt O00329); assay: PI3Kδ scintillation proximity assay; format: biochemical
[3] = Table A3, scintillation proximity assay, recombinant human p110γ
[4] = Table A3, scintillation proximity assay, recombinant human PI3Kδ
[5] = Table A4, scintillation proximity assay, recombinant human p110γ
[6] = Table A4, scintillation proximity assay, recombinant human PI3Kδ

Chain of PI3Kδ (p1106/p85a) Recombinant Human Protein (O00329 whole entry): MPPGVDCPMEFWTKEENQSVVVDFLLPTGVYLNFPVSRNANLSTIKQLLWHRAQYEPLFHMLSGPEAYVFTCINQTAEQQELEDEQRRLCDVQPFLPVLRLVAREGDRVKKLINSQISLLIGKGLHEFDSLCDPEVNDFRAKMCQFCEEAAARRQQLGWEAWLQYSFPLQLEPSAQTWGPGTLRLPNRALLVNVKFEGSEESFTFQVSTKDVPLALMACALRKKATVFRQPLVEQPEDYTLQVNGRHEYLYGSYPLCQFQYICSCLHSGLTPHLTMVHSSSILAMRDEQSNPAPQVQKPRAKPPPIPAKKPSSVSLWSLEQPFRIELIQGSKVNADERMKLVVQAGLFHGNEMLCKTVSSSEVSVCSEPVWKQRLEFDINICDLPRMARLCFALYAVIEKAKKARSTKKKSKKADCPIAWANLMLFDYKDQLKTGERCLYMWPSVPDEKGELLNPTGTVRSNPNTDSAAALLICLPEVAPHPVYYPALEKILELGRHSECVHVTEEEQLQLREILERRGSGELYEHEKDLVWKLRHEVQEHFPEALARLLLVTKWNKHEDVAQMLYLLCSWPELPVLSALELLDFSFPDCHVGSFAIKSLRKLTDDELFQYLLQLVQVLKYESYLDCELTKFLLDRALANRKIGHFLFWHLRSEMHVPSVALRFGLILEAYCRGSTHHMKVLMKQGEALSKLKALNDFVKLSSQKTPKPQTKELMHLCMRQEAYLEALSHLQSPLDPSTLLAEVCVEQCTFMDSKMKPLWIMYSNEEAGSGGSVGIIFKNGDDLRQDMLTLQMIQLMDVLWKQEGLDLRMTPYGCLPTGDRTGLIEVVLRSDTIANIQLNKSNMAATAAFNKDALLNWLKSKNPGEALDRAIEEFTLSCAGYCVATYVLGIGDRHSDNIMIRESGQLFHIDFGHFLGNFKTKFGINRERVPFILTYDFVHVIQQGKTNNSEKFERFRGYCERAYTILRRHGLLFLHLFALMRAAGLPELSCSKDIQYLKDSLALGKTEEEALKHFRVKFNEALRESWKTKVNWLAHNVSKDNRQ
Chain of PI3Kδ (p1106/p85a) Recombinant Human Protein (P27986 whole entry partner): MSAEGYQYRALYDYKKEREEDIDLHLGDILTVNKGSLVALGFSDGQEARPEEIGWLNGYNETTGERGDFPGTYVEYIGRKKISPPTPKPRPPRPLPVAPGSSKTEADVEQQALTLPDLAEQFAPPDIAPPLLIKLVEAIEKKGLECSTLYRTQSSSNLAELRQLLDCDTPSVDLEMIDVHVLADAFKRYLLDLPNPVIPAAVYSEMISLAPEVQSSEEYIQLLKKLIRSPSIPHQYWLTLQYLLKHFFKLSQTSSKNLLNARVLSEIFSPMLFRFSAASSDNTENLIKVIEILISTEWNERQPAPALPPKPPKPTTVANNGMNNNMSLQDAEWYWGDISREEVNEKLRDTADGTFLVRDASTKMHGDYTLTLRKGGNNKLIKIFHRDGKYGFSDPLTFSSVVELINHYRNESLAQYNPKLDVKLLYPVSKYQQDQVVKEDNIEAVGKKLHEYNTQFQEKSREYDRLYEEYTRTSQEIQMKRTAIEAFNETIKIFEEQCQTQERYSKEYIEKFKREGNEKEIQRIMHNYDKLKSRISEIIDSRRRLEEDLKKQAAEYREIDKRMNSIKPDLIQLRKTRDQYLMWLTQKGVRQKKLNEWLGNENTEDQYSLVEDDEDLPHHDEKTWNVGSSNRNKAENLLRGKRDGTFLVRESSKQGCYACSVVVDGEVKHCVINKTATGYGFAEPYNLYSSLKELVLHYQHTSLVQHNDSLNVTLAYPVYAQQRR
Chain of PI3Kγ (p110γ) Recombinant Human Protein (P48736 whole entry): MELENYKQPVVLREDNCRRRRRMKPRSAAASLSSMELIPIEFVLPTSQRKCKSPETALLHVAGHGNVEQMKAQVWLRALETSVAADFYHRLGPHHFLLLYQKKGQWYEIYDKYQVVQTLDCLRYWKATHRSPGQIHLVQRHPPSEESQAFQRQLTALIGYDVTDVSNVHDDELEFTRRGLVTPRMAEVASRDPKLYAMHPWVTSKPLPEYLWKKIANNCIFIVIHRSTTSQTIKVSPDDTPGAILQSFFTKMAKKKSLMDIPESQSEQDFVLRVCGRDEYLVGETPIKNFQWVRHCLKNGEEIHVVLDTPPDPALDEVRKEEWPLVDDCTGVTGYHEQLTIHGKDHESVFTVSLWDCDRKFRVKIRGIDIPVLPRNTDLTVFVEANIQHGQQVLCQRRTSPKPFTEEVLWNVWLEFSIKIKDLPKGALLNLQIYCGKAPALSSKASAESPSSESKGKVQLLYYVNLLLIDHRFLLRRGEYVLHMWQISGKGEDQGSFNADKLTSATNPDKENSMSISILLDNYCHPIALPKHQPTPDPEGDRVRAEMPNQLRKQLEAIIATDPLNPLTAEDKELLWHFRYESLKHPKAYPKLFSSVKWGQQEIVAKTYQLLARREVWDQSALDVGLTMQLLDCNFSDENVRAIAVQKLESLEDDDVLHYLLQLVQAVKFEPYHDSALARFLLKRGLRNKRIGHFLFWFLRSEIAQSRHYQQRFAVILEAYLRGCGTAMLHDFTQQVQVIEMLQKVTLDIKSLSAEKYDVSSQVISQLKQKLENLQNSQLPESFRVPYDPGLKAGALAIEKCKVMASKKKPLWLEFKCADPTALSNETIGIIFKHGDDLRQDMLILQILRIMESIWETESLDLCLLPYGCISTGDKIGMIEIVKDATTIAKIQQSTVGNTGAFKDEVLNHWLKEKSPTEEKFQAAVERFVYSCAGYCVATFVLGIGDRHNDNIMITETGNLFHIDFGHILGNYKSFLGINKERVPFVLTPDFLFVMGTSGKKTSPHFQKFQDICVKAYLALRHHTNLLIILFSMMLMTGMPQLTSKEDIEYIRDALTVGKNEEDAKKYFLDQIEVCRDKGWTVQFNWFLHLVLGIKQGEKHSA

| SMILES | IC50 [1, 3] | IC50 [2, 4] | IC50 [1, 5] | IC50 [2, 6] | also measured |
| --- | --- | --- | --- | --- | --- |
| Cc1ccc(C(O)(C(N)=O)C(F)F)cc1-c1cnc(N)c(-c2cnn(C)n2)n1 (stereo not shown) [Example 101, 2-(3-(5-amino-6-(2-methyl-2H-1,2,3-triazol-4-yl)pyrazin-2-yl)-4-methylphenyl)-3,3-difluoro-2-hydroxypropanamide] | < 100 nM | < 100 nM | – | – | – |
| Cc1ccc(C(O)(CNC=O)C(F)(F)F)cc1-c1cnc(N)c(-c2cnc(C3CC3)s2)n1 (stereo not shown) [Example 102, N-(2-(3-(5-amino-6-(2-cyclopropylthiazol-5-yl)pyrazin-2-yl)-4-methylphenyl)-3,3,3-trifluoro-2-hydroxypropyl)formamide trifluoroacetate] | < 100 nM | < 100 nM | – | – | – |
| Cc1ccc(C(O)(C(N)=O)C(F)(F)F)cc1-c1cnc(N)c(C(=O)Nc2ccnn2C)n1 (stereo not shown) [Example 106, 3-amino-6-(5-(3-amino-1,1,1-trifluoro-2-hydroxy-3-oxopropan-2-yl)-2-methylphenyl)-N-(1-methyl-1H-pyrazol-5-yl)pyrazine-2-carboxamide trifluoroacetate] | < 100 nM | < 100 nM | – | – | – |
| CC(=O)N1CCN(c2nc(-c3cc(C(O)(C(N)=O)C(F)(F)F)ccc3C)cnc2N)CC1 (stereo not shown) [Example 114, 2-(3-(6-(4-acetylpiperazin-1-yl)-5-aminopyrazin-2-yl)-4-methylphenyl)-3,3,3-trifluoro-2-hydroxypropanamide trifluoroacetate] | – | – | < 100 nM | < 100 nM | – |
| Cc1ccc(C(O)(C(N)=O)C(F)(F)F)cc1-c1cnc(N)c(N2CCN(c3ccccn3)CC2)n1 (stereo not shown) [Example 117, 2-(3-(5-amino-6-(4-(pyridin-2-yl)piperazin-1-yl)pyrazin-2-yl)-4-methylphenyl)-3,3,3-trifluoro-2-hydroxypropanamide trifluoroacetate] | – | – | – | – | IC50 [1]: < 100 nM; IC50 [2]: < 100 nM |
| Cc1ccc(C(O)(C(N)=O)C(F)(F)F)cc1-c1cnc(N)c(N2CCN(c3cncs3)CC2)n1 (stereo not shown) [Example 120, 2-(3-(5-amino-6-(4-(thiazol-5-yl)piperazin-1-yl)pyrazin-2-yl)-4-methylphenyl)-3,3,3-trifluoro-2-hydroxypropanamide trifluoroacetate] | – | – | < 100 nM | < 100 nM | – |

Further lines, with some results ahead:

| IC50 [1, 3] | IC50 [2, 4] | IC50 [1, 5] | IC50 [2, 6] | SMILES | also measured |
| --- | --- | --- | --- | --- | --- |
| < 100 nM | < 100 nM | – | – | CC(=O)NCC(O)(c1ccc(C)c(-c2cnc(N)c(-c3cnn(CC(F)(F)F)c3)n2)c1)C(F)(F)F (stereo not shown) [Example 104, N-(2-(3-(5-amino-6-(1-(2,2,2-trifluoroethyl)-1H-pyrazol-4-yl)pyrazin-2-yl)-4-methylphenyl)-3,3,3-trifluoro-2-hydroxypropyl)acetamide trifluoroacetate] | – |
| < 100 nM | < 100 nM | – | – | CC(=O)NCC(O)(c1ccc(C)c(-c2cnc(N)c(-c3cn[nH]c3)n2)c1)C(F)(F)F (stereo not shown) [Example 105, N-(2-(3-(5-amino-6-(1H-pyrazol-4-yl)pyrazin-2-yl)-4-methylphenyl)-3,3,3-trifluoro-2-hydroxypropyl)acetamide trifluoroacetate] | – |
| – | – | < 100 nM | < 100 nM | Cc1ccc([C@@](O)(C(N)=O)C(F)(F)F)cc1-c1cnc(N)c(N2CCN(C(=O)C3CC3)CC2)n1 [Example 115, (R)-2-(3-(5-amino-6-(4-(cyclopropanecarbonyl)piperazin-1-yl)pyrazin-2-yl)-4-methylphenyl)-3,3,3-trifluoro-2-hydroxypropanamide trifluoroacetate] | – |
| – | – | < 100 nM | 100 to 500 nM | Cc1ccc(C(O)(C(N)=O)C(F)(F)F)cc1-c1cnc(N)c(N2CCN(c3ccccc3)CC2)n1 (stereo not shown) [Example 116, 2-(3-(5-amino-6-(4-phenylpiperazin-1-yl)pyrazin-2-yl)-4-methylphenyl)-3,3,3-trifluoro-2-hydroxypropanamide trifluoroacetate] | – |
| – | – | < 100 nM | 100 to 500 nM | Cc1ccc(C)c(N2CCN(c3nc(-c4cc(C(O)(C(N)=O)C(F)(F)F)ccc4C)cnc3N)CC2)c1 (stereo not shown) [Example 119, 2-(3-(5-amino-6-(4-(2,5-dimethylphenyl)piperazin-1-yl)pyrazin-2-yl)-4-methylphenyl)-3,3,3-trifluoro-2-hydroxypropanamide trifluoroacetate] | – |
